From patent publication US20240358702A1, “CYCLIC UREA KRAS INHIBITORS” (INCYTE CORPORATION, priority 2023, published 2024) come the findings set out here.

One data set addresses KRAS G12D (Homo sapiens, UniProt P01116, G12D). Description: GDP-GTP exchange assay (bodipy-GDP/GppNHp, SOS1), KRAS G12D. The data set is classed as biochemical. Conditions: KRAS_G12D exchange assay IC50, 4 h pre-incubation, value for the most potent isomer quoted.
The next data set addresses KRAS G12V (Homo sapiens, UniProt P01116, G12V). Description: GDP-GTP exchange assay (bodipy-GDP/GppNHp, SOS1), KRAS G12V. To be noted: KRAS_G12V exchange assay IC50, value for the most potent isomer quoted. The data set is classed as biochemical.
The test system of another data set is Caco-2 cells. Description: Caco2 assay (permeability, A-B). The data set is classed as in vitro ADME. Conditions: Papp absorptive direction (A-B), test compound 50 μM, 120 minutes. The procedure:
Caco-2 cells are grown at 37° C. in an atmosphere of 5% CO2 in DMEM growth medium supplemented with 10% (v/v) fetal bovine serum, 1% (v/v) nonessential amino acids, penicillin (100 U/mL), and streptomycin (100 μg/mL). Confluent cell monolayers are subcultured every 7 days or 4 days for Caco-2 by treatment with 0.05% trypsin containing […]. Caco-2 cells are seeded in 96-well Transwell plates. The seeding density for Caco-2 cells is 14,000 cells/well. DMEM growth medium is replaced every other day after seeding. Cell monolayers are used for transport assays between 22 and 25 days for Caco-2 cells.
Cell culture medium is removed and replaced with HBSS. To measure the TEER, the HBSS is added into the donor compartment (apical side) and receiver compartment (basolateral side). The TEER is measured by using a REMS Autosampler to ensure the integrity of the cell monolayers. Caco-2 cell monolayers with TEER values≥300 Ω·cm^2 are used for transport experiments. To determine the Papp in the absorptive direction (A-B), solution of test compound (50 μM) in HBSS is added to the donor compartment (apical side), while HBSS solution with 4% BSA is added to the receiver compartment (basolateral side). The apical volume was 0.075 mL, and the basolateral volume is 0.25 mL. The incubation period is 120 minutes at 37° C. in an atmosphere of 5% CO2. At the end of the incubation period, samples from the donor and receiver sides are removed and an equal volume of acetonitrile is added for protein precipitation. The supernatants are collected after centrifugation (3000 rpm, Allegra X-14R Centrifuge from Beckman Coulter, Indianapolis, IN) for LCMS analysis. The permeability value is determined according to the equation: […]
where the flux rate (F, mass/time) is calculated from the slope of cumulative amounts of compound of interest on the receiver side, SA is the surface area of the cell membrane, VD is the donor volume, and MD is the initial amount of the solution in the donor chamber.
The symbol “+” indicates a Caco-2 value of […], “++” indicates a Caco-2 value of >0.5 but ≤1; and “+++” indicates a Caco-2 value of >1. “NA” indicates IC50 not available.

Chain of KRAS G12D (P01116 1-188 isoform P01116-2 G12D): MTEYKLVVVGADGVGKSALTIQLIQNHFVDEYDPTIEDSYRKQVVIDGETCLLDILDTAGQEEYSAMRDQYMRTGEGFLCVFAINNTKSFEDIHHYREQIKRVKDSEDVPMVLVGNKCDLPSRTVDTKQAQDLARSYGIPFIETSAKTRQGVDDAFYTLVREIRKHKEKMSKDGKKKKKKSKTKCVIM
Chain of KRAS G12V (P01116 1-188 isoform P01116-2 G12V): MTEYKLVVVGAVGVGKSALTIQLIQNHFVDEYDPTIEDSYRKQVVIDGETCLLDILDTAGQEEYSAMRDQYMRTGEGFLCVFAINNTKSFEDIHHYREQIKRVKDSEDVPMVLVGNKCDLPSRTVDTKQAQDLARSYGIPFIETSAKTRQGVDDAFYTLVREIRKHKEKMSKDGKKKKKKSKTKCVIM

On to `Cc1nc2c(F)c(-c3cccc(Cl)c3Cl)c(CCC#N)cc2c2c1cc([C@@H](C)N1CCCN(c3ccnc(F)c3)C1=O)n2[C@H]1[C@H]2CN[C@@H]1C2` (single isomer, unassigned) [Example 6], for which the G12D_exchange result on KRAS G12D is recorded as “†”. Besides, on KRAS G12V, the G12V_exchange entry was “†”. For the same compound, the Caco-2 entry with Caco-2 cells is listed as “+++ (“+++” indicates a Caco-2 value of >1)”.
On to `Cc1nc2c(F)c(-c3cccc(Cl)c3Cl)c(CCC#N)cc2c2c1cc([C@@H](C)N1CCCN(c3ccccn3)C1=O)n2[C@H]1[C@H]2CN[C@@H]1C2` (single isomer, unassigned) [Example 4], for which the G12D_exchange result on KRAS G12D is “†”. For the same compound, the G12V_exchange result on KRAS G12V is reported as “†”. The Caco-2 result in the data set on Caco-2 cells is recorded as “+ (“+” indicates a Caco-2 value of 50.5)”.
With `CC(O)c1nc2c(F)c(-c3cccc(Cl)c3Cl)c(CCC#N)cc2c2c1cc([C@@H](C)N1CCCN(c3ccncc3)C1=O)n2[C@H]1[C@H]2CN[C@@H]1C2` (single isomer, unassigned) [Example 14], the G12D_exchange entry on KRAS G12D is recorded as “†”. On KRAS G12V, the G12V_exchange result is recorded as “†”. Besides, the Caco-2 result in the data set on Caco-2 cells is listed as “+ (“+” indicates a Caco-2 value of 50.5)”.
Consider `Cc1nc2c(F)c(-c3cccc(Cl)c3Cl)c(CCC#N)cc2c2c1cc([C@@H](C)N1CCCN(c3ccncc3)C1=O)n2[C@H]1[C@H]2CN[C@@H]1C2` (single isomer, unassigned) [Example 1], for which the G12D_exchange entry at KRAS G12D is on record as “†”. Moreover, on KRAS G12V, the G12V_exchange entry was “†”. For the same compound, the Caco-2 entry with Caco-2 cells is “+++ (“+++” indicates a Caco-2 value of >1)”.
For `Cc1nc2c(F)c(-c3cccc(Cl)c3Cl)c(CCC#N)cc2c2c1cc([C@@H](C)N1CCCN(c3ccc(F)cc3)C1=O)n2[C@H]1[C@H]2CN[C@@H]1C2` (single isomer, unassigned) [Example 3], the G12D_exchange entry at KRAS G12D is “†”. For the same compound, the G12V_exchange result at KRAS G12V is listed as “†”. The Caco-2 result in the data set on Caco-2 cells is given as “+++ (“+++” indicates a Caco-2 value of >1)”.
For the compound `Cc1nc2c(F)c(-c3cccc(Cl)c3Cl)c(CCC#N)cc2c2c1cc([C@@H](C)N1CCCN(c3ccncc3F)C1=O)n2[C@H]1[C@H]2CN[C@@H]1C2` (single isomer, unassigned) [Example 5], the G12D_exchange result on KRAS G12D was “†”. Further, the G12V_exchange entry at KRAS G12V was “†”. In addition, in the data set on Caco-2 cells, the Caco-2 result is “+++ (“+++” indicates a Caco-2 value of >1)”.
`Cc1nc2c(F)c(-c3cccc(Cl)c3Cl)c(CCC#N)cc2c2c1cc([C@@H](C)N1CCCN(c3ccc(F)cn3)C1=O)n2[C@H]1[C@H]2CN[C@@H]1C2` (single isomer, unassigned) [Example 7]: at KRAS G12D, the G12D_exchange entry is recorded as “†”. Further, the G12V_exchange result at KRAS G12V is recorded as “†”. In addition, the Caco-2 result in the data set with Caco-2 cells is on record as “+++ (“+++” indicates a Caco-2 value of >1)”.
Turning to `Cc1nc2c(F)c(-c3cccc(Cl)c3Cl)c(CCC#N)cc2c2c1cc([C@@H](C)N1CCCN(c3ccn(C)c(=O)c3)C1=O)n2[C@H]1[C@H]2CN[C@@H]1C2` [Example 36, 3-(1-((1R,4R,5S)-2-azabicyclo[2.1.1]hexan-5-yl)-7-(2,3-dichlorophenyl)-6-fluoro-4-methyl-2-((R)-1-(3-(1-methyl-2-oxo-1,2-dihydropyridin-4-yl)-2-oxotetrahydropyrimidin-1(2H)-yl)ethyl)-1H-pyrrolo[3,2-c]quinolin-8-yl)propanenitrile], the IC50 at KRAS G12D (read-out: G12D_exchange) fell in the range of 0.1 to 1 µM; on KRAS G12V (read-out: G12V_exchange), 1 to 5 µM.
Turning to `Cc1c(Cl)cc(O)cc1-c1c(CCC#N)cc2c(nc(C)c3cc([C@@H](C)N4CCCN(c5ccncc5)C4=O)n([C@H]4[C@H]5CN[C@@H]4C5)c32)c1F` [Example 15, 3-(1-((1R,4R,5S)-2-azabicyclo[2.1.1]hexan-5-yl)-7-(3-chloro-5-hydroxy-2-methylphenyl)-6-fluoro-4-methyl-2-((R)-1-(2-oxo-3-(pyridin-4-yl)tetrahydropyrimidin-1(2H)-yl)ethyl)-1H-pyrrolo[3,2-c]quinolin-8-yl)propanenitrile], the G12D_exchange entry on KRAS G12D is “†”. The G12V_exchange entry on KRAS G12V is reported as “†”. In addition, the Caco-2 entry with Caco-2 cells was “+ (“+” indicates a Caco-2 value of 50.5)”.
On to `Cc1nc2c(F)c(-c3cccc(Cl)c3Cl)c(CCC#N)cc2c2c1cc([C@@H](C)N1CCCN(c3ccccc3)C1=O)n2[C@H]1[C@H]2CN[C@@H]1C2` (single isomer, unassigned) [Example 2], for which, at KRAS G12D, the G12D_exchange entry is “†”. At KRAS G12V, the G12V_exchange result is given as “†”. Besides, the Caco-2 result with Caco-2 cells is “+++ (“+++” indicates a Caco-2 value of >1)”.
For `Cc1nc2c(F)c(-c3cccc(Cl)c3Cl)c(CCC#N)cc2c2c1cc([C@@H](C)N1CCCN(c3ccnc4sccc34)C1=O)n2[C@H]1[C@H]2CN[C@@H]1C2` (single isomer, unassigned) [Example 8], the G12D_exchange entry on KRAS G12D was “†”. Besides, the G12V_exchange result on KRAS G12V is reported as “†”.
As to `Cc1nc2c(F)c(-c3cccc(Cl)c3Cl)c(CCC#N)cc2c2c1cc([C@@H](C)N1CCCN(c3cncnc3)C1=O)n2[C@H]1[C@H]2CN[C@@H]1C2` [Example 34, 3-(1-((1R,4R,5S)-2-azabicyclo[2.1.1]hexan-5-yl)-7-(2,3-dichlorophenyl)-6-fluoro-4-methyl-2-((R)-1-(2-oxo-3-(pyrimidin-5-yl)tetrahydropyrimidin-1(2H)-yl)ethyl)-1H-pyrrolo[3,2-c]quinolin-8-yl)propanenitrile], the G12D_exchange entry at KRAS G12D is “†”. Also, at KRAS G12V, the G12V_exchange entry is on record as “†”.
Take `Cc1nc2c(F)c(-c3cccc(Cl)c3Cl)c(CCC#N)cc2c2c1cc([C@@H](C)N1CCCN(c3cccc(C4(O)COC4)c3)C1=O)n2[C@H]1[C@H]2CN[C@@H]1C2` [Example 24, 3-(1-((1R,4R,5S)-2-azabicyclo[2.1.1]hexan-5-yl)-7-(2,3-dichlorophenyl)-6-fluoro-2-((R)-1-(3-(3-(3-hydroxyoxetan-3-yl)phenyl)-2-oxotetrahydropyrimidin-1(2H)-yl)ethyl)-4-methyl-1H-pyrrolo[3,2-c]quinolin-8-yl)propanenitrile]: on KRAS G12D, the G12D_exchange entry is “†”. Moreover, at KRAS G12V, the G12V_exchange result was “†”.
